Measurements: PubChem BioAssay (NCI)
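96-well plates; 48 h exposure; 5 concentrations. Endpoints by linear interpolation between flanking doses. Not reached: highest tested concentration assigned. Here, GI50 denotes the concentration required for 50% inhibition of growth. TGI marks complete inhibition of growth.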

Assays:
Assay in all cases: inhibition of tumour cell growth, NCI panel, 48 h
[1] = tested on: CCRF-CEM leukemia
[2] = tested on: HCC-2998 colon
[3] = tested on: OVCAR-5 ovarian
[4] = tested on: U251 CNS
[5] = tested on: CAKI-1 renal
[6] = tested on: SW-620 colon
[7] = tested on: PC-3 prostate
[8] = tested on: HL-60(TB) leukemia
[9] = tested on: OVCAR-8 ovarian
[10] = tested on: MDA-MB-435
[11] = tested on: SF-268 CNS
[12] = tested on: BT-549 breast
[13] = tested on: M14 melanoma
[14] = tested on: MDA-MB-468 breast
[15] = tested on: T-47D breast
[16] = tested on: SF-295 CNS
[17] = tested on: SN12C renal
[18] = tested on: HT29 colon
[19] = tested on: SNB-75 CNS
[20] = tested on: SK-OV-3 ovarian
[21] = tested on: RPMI-8226 leukemia
[22] = tested on: MALME-3M melanoma
[23] = tested on: COLO 205 colon
[24] = tested on: KM12 colon
[25] = tested on: HCT-15 colon
[26] = tested on: NCI-H23 lung
[27] = tested on: UACC-62 melanoma
[28] = tested on: SK-MEL-5 melanoma
[29] = tested on: A549 NSCLC

Q: For `O=C1Nc2ccc(Cl)cc2/C1=C/c1ccc(OCc2ccc(Br)cc2F)cc1`, which GI50 [1] is on record?
A: 4.55 µM

Q: What about the TGI [1] of the same molecule?
A: 17.7 µM

Q: And the GI50 [2]?
A: 20.5 µM

Q: What about the TGI [2] of the same molecule?
A: 65.7 µM

Q: What about the GI50 [3] of the same molecule?
A: 13 µM

Q: What about the TGI [3] of the same molecule?
A: 42.9 µM

Q: And the GI50 [4]?
A: 2.03 µM

Q: What about the TGI [4] of the same molecule?
A: 4.07 µM

Q: And the GI50 [5]?
A: 2.05 µM

Q: What about the TGI [5] of the same molecule?
A: 7.06 µM

Q: What about the GI50 [6] of the same molecule?
A: 2.8 µM

Q: And the TGI [6]?
A: 10.3 µM

Q: What about the GI50 [7] of the same molecule?
A: 3.79 µM

Q: And the TGI [7]?
A: 16.6 µM

Q: What about the GI50 [8] of the same molecule?
A: 10.9 µM

Q: What about the TGI [8] of the same molecule?
A: 26.1 µM

Q: What about the GI50 [9] of the same molecule?
A: 3.74 µM

Q: What about the TGI [9] of the same molecule?
A: 15.1 µM

Q: And the GI50 [10]?
A: 9.81 µM

Q: What about the TGI [10] of the same molecule?
A: 22.2 µM

Q: What about the GI50 [11] of the same molecule?
A: 5.01 µM

Q: What about the TGI [11] of the same molecule?
A: 17.7 µM

Q: What about the GI50 [12] of the same molecule?
A: 9.48 µM

Q: And the TGI [12]?
A: 26.8 µM

Q: What about the GI50 [13] of the same molecule?
A: 4.97 µM

Q: And the TGI [13]?
A: 18.6 µM

Q: What about the GI50 [14] of the same molecule?
A: 8.46 µM

Q: And the TGI [14]?
A: 21.9 µM

Q: And the GI50 [15]?
A: 10.9 µM

Q: What about the TGI [15] of the same molecule?
A: 30.8 µM

Q: What about the GI50 [16] of the same molecule?
A: 3.24 µM

Q: What about the TGI [16] of the same molecule?
A: 12.1 µM

Q: And the GI50 [17]?
A: 4.62 µM

Q: What about the TGI [17] of the same molecule?
A: 18.7 µM

Q: What about the GI50 [18] of the same molecule?
A: 12.9 µM

Q: And the TGI [18]?
A: 29.1 µM

Q: What about the GI50 [19] of the same molecule?
A: 2 µM

Q: What about the TGI [19] of the same molecule?
A: 7.32 µM

Q: What about the GI50 [20] of the same molecule?
A: 4.2 µM

Q: And the TGI [20]?
A: 17.9 µM

Q: What about the GI50 [21] of the same molecule?
A: 9.01 µM

Q: And the TGI [21]?
A: 24 µM

Q: And the GI50 [22]?
A: 2.76 µM

Q: And the TGI [22]?
A: 9.8 µM

Q: And the GI50 [23]?
A: 9.18 µM

Q: What about the TGI [23] of the same molecule?
A: 37.5 µM

Q: What about the GI50 [24] of the same molecule?
A: 8.56 µM

Q: And the TGI [24]?
A: 25.7 µM

Q: And the GI50 [25]?
A: 5.77 µM

Q: What about the TGI [25] of the same molecule?
A: 21 µM

Q: What about the GI50 [26] of the same molecule?
A: 2.98 µM

Q: What about the TGI [26] of the same molecule?
A: 12.2 µM

Q: And the GI50 [27]?
A: 3.72 µM

Q: And the TGI [27]?
A: 15.4 µM

Q: What about the GI50 [28] of the same molecule?
A: 10.8 µM

Q: And the TGI [28]?
A: 23.1 µM

Q: What about the GI50 [29] of the same molecule?
A: 3.25 µM

Q: What about the TGI [29] of the same molecule?
A: 11.3 µM
